Numbered stars: 1 amine (or outer) side, 2 acyl side, 3 side chain; on linkers, the order of the positions; unused ones are H or OH. Bridge positions count the residues as written; N and C are the ends. Square brackets hold non-standard residues; d marks the D form. Peptide text beside a SMILES is read from it. * marks the point of attachment. ξ: configuration not given here. ξPro(4ξ-NHCOC6H4-4-Cl) = O=C(NC1CNC(C(=O)O)C1)c1ccc(Cl)cc1; Shikimoyl = O=C(C1=C[C@@H](O)[C@@H](O)[C@H](O)C1)*; Isoorotoyl = O=C(c1c[nH]c(=O)[nH]c1=O)*; Benzoyl(3,5-F2) = O=C(c1cc(F)cc(F)c1)*; 2Thenoyl(5-Cl) = O=C(c1ccc(Cl)s1)*; Benzoyl(4-Cl) = O=C(c1ccc(Cl)cc1)*; Cysteamide = C(CS[*:3])N[*:1]; X13 = O=C(c1ccc2[nH]cnc2c1)*; X7 = CC(C)=CCCC(C)CC(=O)*; X1 = O=C(/C=C/c1ccccc1)*; Api = NC1(C(=O)O)CCNCC1; Dap = NC[C@H](N)C(=O)O; X15 = O=C(c1cc[nH]n1)*; X2 = O=C(C=Cc1ccccc1)*; Mpa = O=C(O)CCS
Biological target: MDM2 (Homo sapiens, UniProt Q00987)
Sequence (Q00987 whole entry): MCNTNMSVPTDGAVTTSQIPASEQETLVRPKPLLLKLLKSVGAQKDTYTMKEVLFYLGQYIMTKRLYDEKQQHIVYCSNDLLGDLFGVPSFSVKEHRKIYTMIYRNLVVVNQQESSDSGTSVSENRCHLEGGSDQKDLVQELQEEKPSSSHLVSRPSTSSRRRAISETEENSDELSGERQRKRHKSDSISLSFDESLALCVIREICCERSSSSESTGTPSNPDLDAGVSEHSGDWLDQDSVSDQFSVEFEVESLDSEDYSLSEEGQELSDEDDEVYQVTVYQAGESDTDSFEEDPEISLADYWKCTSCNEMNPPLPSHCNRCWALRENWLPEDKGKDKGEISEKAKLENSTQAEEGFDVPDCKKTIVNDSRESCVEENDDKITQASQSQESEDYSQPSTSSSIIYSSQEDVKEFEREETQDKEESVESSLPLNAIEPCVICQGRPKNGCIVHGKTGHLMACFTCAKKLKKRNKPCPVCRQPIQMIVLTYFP
Experiment: MDM2 binding screen: displacement of fluorescent p53 peptide probe FP53 (fluorescence polarization)
Settings: for fraction fluorescent probe displaced: 10 µM macrocycle concentration, crude acylated macrocycle (scaffold Mpa-AA1-AA2-AA3 x carboxylic acid), p53-based fluorescent peptide, human MDM2; for fraction fluorescent probe displaced, Screen: initial screen; for fraction fluorescent probe displaced, Screen / fraction fluorescent probe displaced, Replicate: crude macrocycle reactions
In short: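 Single-point screen: one fluorescence anisotropy reading at 25 °C (485 nm excitation, 535 nm emission) per macrocycle. Crude macrocycle reactions, final 10 µM, were scored for displacing the fluorescent p53 peptide from human MDM2.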

Compound: O=C(NC[C@@H]1NC(=O)[C@@H]2CCCN2C(=O)CCSSCCNC(=O)[C@H](Cc2c[nH]c3ccccc23)NC1=O)c1cc[nH]n1 [X-B1-D3-W + A5] ([Mpa]P[Dap](X15)W-Cysteamide; disulfide 1-C)
- fraction fluorescent probe displaced: 0.05625

Compound: O=C1CCNC(=O)[C@H](Cc2c[nH]c3ccccc23)NC(=O)C2(CCN(C(=O)c3ccc(Cl)cc3)CC2)NC(=O)CCSSCCN1 [X D6 W B2 Acid 25]
- fraction fluorescent probe displaced, Screen (Acid 25): 0.09
- fraction fluorescent probe displaced, Replicate (Acid 25): 0.10

Compound: O=C(NC[C@@H]1NC(=O)[C@@H]2CCCN2C(=O)CCSSCCNC(=O)[C@H](Cc2ccccc2)NC1=O)c1c[nH]c(=O)[nH]c1=O [X-B1-D3-F + A11] ([Mpa]P[Dap](Isoorotoyl)F-Cysteamide; disulfide 1-C)
- fraction fluorescent probe displaced: 0.04782

Compound: O=C(NC[C@@H]1NC(=O)[C@@H]2CCCN2C(=O)CCSSCCNC(=O)[C@H](Cc2ccccc2)NC1=O)C1=C[C@@H](O)[C@@H](O)[C@H](O)C1 [X-B1-D3-F + A72] ([Mpa]P[Dap](Shikimoyl)F-Cysteamide; disulfide 1-C)
- fraction fluorescent probe displaced: 0.06911

Compound: O=C1CCSSCCNC(=O)[C@H](Cc2ccccc2)NC(=O)[C@@H]2CCCN2C(=O)[C@H](CNC(=O)c2ccc(Cl)cc2)N1 [X D3 B1 F Acid 25] ([Mpa][Dap](Benzoyl(4-Cl))PF-Cysteamide; disulfide 1-C)
- fraction fluorescent probe displaced, Screen (Acid 25): 0.15
- fraction fluorescent probe displaced, Replicate (Acid 25): 0.12

Compound: O=C1CCSSCCNC(=O)C2CN(C(=O)C=Cc3ccccc3)CCN2C(=O)C(Cc2ccccc2)NC(=O)c2cccc(c2)CN1 (stereo not drawn) [X B5 F D7 Acid 91]
- fraction fluorescent probe displaced, Screen (Acid 91): -0.05
- fraction fluorescent probe displaced, Replicate (Acid 91): -0.06

Compound: O=C1NC2(CCN(C(=O)/C=C/c3ccccc3)CC2)C(=O)NCCSSCCC(=O)N2CCC[C@H]2C(=O)N[C@H]1Cc1c[nH]c2ccccc12 [X B1 W D6 Acid 91] ([Mpa]PW[Api](X1)-Cysteamide; disulfide 1-C)
- fraction fluorescent probe displaced, Screen (Acid 91): 0.14
- fraction fluorescent probe displaced, Replicate (Acid 91): 0.07

Compound: O=C(C=Cc1ccccc1)NC1CC2C(=O)NC(Cc3c[nH]c4ccccc34)C(=O)NCCSSCCC(=O)NCCC(=O)N2C1 (stereo not drawn) [X B2 D5 W Acid 91]
- fraction fluorescent probe displaced, Screen (Acid 91): 0.03
- fraction fluorescent probe displaced, Replicate (Acid 91): 0.0168

Compound: O=C1CCSSCCNC(=O)[C@H](Cc2c[nH]c3ccccc23)NC(=O)[C@H](CNC(=O)c2ccc(Cl)cc2)NC(=O)CCN1 [X B2 D3 W Acid 25]
- fraction fluorescent probe displaced, Screen (Acid 25): 0.19
- fraction fluorescent probe displaced, Replicate (Acid 25): 0.22

Compound: O=C1CCSSCCNC(=O)[C@@H]2CCCN2C(=O)C2(CCN(C(=O)c3ccc(Cl)s3)CC2)NC(=O)[C@H](Cc2c[nH]c3ccccc23)N1 [X W D6 B1 Acid 14] ([Mpa]W[Api](2Thenoyl(5-Cl))P-Cysteamide; disulfide 1-C)
- fraction fluorescent probe displaced, Screen (Acid 14): 0.14
- fraction fluorescent probe displaced, Replicate (Acid 14): 0.17

Compound: O=C1CCSSCCNC(=O)C2CCCN2C(=O)C2CC(NC(=O)c3ccc(Cl)cc3)CN2C(=O)C(Cc2c[nH]c3ccccc23)N1 (stereo not drawn) [X W D5 B1 Acid 25] ([Mpa]W[ξPro(4ξ-NHCOC6H4-4-Cl)]P-Cysteamide; disulfide 1-C; configuration not given here)
- fraction fluorescent probe displaced, Screen (Acid 25): 0.22
- fraction fluorescent probe displaced, Replicate (Acid 25): 0.28

Compound: O=C1CCNC(=O)C2(CCN(C(=O)c3ccc(Cl)s3)CC2)NC(=O)CCSSCCNC(=O)[C@H](Cc2c[nH]c3ccccc23)N1 [X D6 B2 W Acid 14]
- fraction fluorescent probe displaced, Screen (Acid 14): 0.17
- fraction fluorescent probe displaced, Replicate (Acid 14): 0.20

Compound: O=C1CCSSCCNC(=O)[C@@H]2CCCN2C(=O)[C@H](Cc2c[nH]c3ccccc23)NC(=O)C2(CCN(C(=O)c3ccc(Cl)s3)CC2)N1 [X D6 W B1 Acid 14] ([Mpa][Api](2Thenoyl(5-Cl))WP-Cysteamide; disulfide 1-C)
- fraction fluorescent probe displaced, Screen (Acid 14): 0.11
- fraction fluorescent probe displaced, Replicate (Acid 14): 0.07

Compound: O=C(NC[C@@H]1NC(=O)[C@H]2CCCN(C2)C(=O)CCSSCCNC(=O)[C@H](Cc2c[nH]c3ccccc23)NC1=O)c1ccc(Cl)s1 [X B4 D3 W Acid 14]
- fraction fluorescent probe displaced, Screen (Acid 14): 0.63
- fraction fluorescent probe displaced, Replicate (Acid 14): 0.58

Compound: O=C(NC1CC2C(=O)N3CCCC3C(=O)NC(Cc3ccccc3)C(=O)NCCSSCCC(=O)N2C1)c1ccc(Cl)cc1 (stereo not drawn) [X D5 B1 F Acid 25] ([Mpa][ξPro(4ξ-NHCOC6H4-4-Cl)]PF-Cysteamide; disulfide 1-C; configuration not given here)
- fraction fluorescent probe displaced, Screen (Acid 25): -0.07
- fraction fluorescent probe displaced, Replicate (Acid 25): 0.12

Compound: O=C1CCSSCCNC(=O)[C@H](CNC(=O)c2ccc(Cl)cc2)NC(=O)[C@H](Cc2c[nH]c3ccccc23)NC(=O)CCN1 [X B2 W D3 Acid 25]
- fraction fluorescent probe displaced, Screen (Acid 25): 0.19
- fraction fluorescent probe displaced, Replicate (Acid 25): 0.22

Compound: O=C(NC[C@@H]1NC(=O)[C@@H]2CCCN2C(=O)CCSSCCNC(=O)[C@H](Cc2ccccc2)NC1=O)c1cc(F)cc(F)c1 [X-B1-D3-F + A23] ([Mpa]P[Dap](Benzoyl(3,5-F2))F-Cysteamide; disulfide 1-C)
- fraction fluorescent probe displaced: 0.02873

Compound: O=C1CCNC(=O)[C@H](Cc2c[nH]c3ccccc23)NC(=O)CCSSCCNC(=O)[C@H](CNC(=O)c2ccc(Cl)cc2)N1 [X W B2 D3 Acid 25]
- fraction fluorescent probe displaced, Screen (Acid 25): 0.28
- fraction fluorescent probe displaced, Replicate (Acid 25): 0.22

Compound: O=C1CCSSCCNC(=O)[C@H]2CCCN(C2)C(=O)[C@H](CNC(=O)c2ccc(Cl)cc2)NC(=O)[C@H](Cc2ccccc2)N1 [X F D3 B4 Acid 25]
- fraction fluorescent probe displaced, Screen (Acid 25): 0.12
- fraction fluorescent probe displaced, Replicate (Acid 25): 0.10

Compound: O=C1CCSSCCNC(=O)C2CCCN2C(=O)C2(CCN(C(=O)C=Cc3ccccc3)CC2)NC(=O)C(Cc2ccccc2)N1 (stereo not drawn) [X F D6 B1 Acid 91] ([Mpa]F[Api](X2)P-Cysteamide; disulfide 1-C; configuration not given here)
- fraction fluorescent probe displaced, Screen (Acid 91): -0.08
- fraction fluorescent probe displaced, Replicate (Acid 91): 0.04

Compound: O=C1CCSSCCNC(=O)C2CN(C(=O)C=Cc3ccccc3)CCN2C(=O)C(Cc2ccccc2)NC(=O)CCN1 (stereo not drawn) [X B2 F D7 Acid 91]
- fraction fluorescent probe displaced, Screen (Acid 91): 0.03
- fraction fluorescent probe displaced, Replicate (Acid 91): -0.00827

Compound: O=C1NC2(CCN(C(=O)/C=C/c3ccccc3)CC2)C(=O)N[C@@H](Cc2c[nH]c3ccccc23)C(=O)NCCSSCCC(=O)N2CCC[C@H]1C2 [X B4 D6 W Acid 91]
- fraction fluorescent probe displaced, Screen (Acid 91): 0.16
- fraction fluorescent probe displaced, Replicate (Acid 91): 0.09

Compound: O=C(NC1CC2C(=O)NC(Cc3c[nH]c4ccccc34)C(=O)N3CCCC(C3)C(=O)NCCSSCCC(=O)N2C1)c1ccc(Cl)cc1 (stereo not drawn) [X D5 W B4 Acid 25]
- fraction fluorescent probe displaced, Screen (Acid 25): 0.09
- fraction fluorescent probe displaced, Replicate (Acid 25): 0.15

Compound: O=C1NCCSSCCC(=O)N2CCN(C(=O)c3ccc(Cl)s3)CC2C(=O)N2CCCC2C(=O)NC1Cc1c[nH]c2ccccc12 (stereo not drawn) [X D7 B1 W Acid 14]
- fraction fluorescent probe displaced, Screen (Acid 14): -0.00483
- fraction fluorescent probe displaced, Replicate (Acid 14): 0.07

Compound: O=C(/C=C/c1ccccc1)NC[C@@H]1NC(=O)[C@H](Cc2c[nH]c3ccccc23)NC(=O)CCSSCCNC(=O)c2cccc(c2)CNC1=O [X W D3 B5 Acid 91]
- fraction fluorescent probe displaced, Screen (Acid 91): 0.0563
- fraction fluorescent probe displaced, Replicate (Acid 91): 0.17

Compound: O=C1CCSSCCNC(=O)C(Cc2ccccc2)NC(=O)C2(CCN(C(=O)c3ccc(Cl)s3)CC2)NC(=O)c2cccc(c2)CN1 (stereo not drawn) [X B5 D6 F Acid 14]
- fraction fluorescent probe displaced, Screen (Acid 14): -0.0116
- fraction fluorescent probe displaced, Replicate (Acid 14): 0.05

Compound: O=C1CCSSCCNC(=O)[C@@H]2CCCN2C(=O)[C@H](CNC(=O)c2ccc(Cl)s2)NC(=O)[C@H](Cc2ccccc2)N1 [X F D3 B1 Acid 14] ([Mpa]F[Dap](2Thenoyl(5-Cl))P-Cysteamide; disulfide 1-C)
- fraction fluorescent probe displaced, Screen (Acid 14): 0.08
- fraction fluorescent probe displaced, Replicate (Acid 14): 0.10

Compound: O=C1CCSSCCNC(=O)c2cccc(c2)CNC(=O)C2(CCN(C(=O)c3ccc(Cl)cc3)CC2)NC(=O)C(Cc2ccccc2)N1 (stereo not drawn) [X F D6 B5 Acid 25]
- fraction fluorescent probe displaced, Screen (Acid 25): -0.00813
- fraction fluorescent probe displaced, Replicate (Acid 25): 0.12

Compound: O=C(NC[C@@H]1NC(=O)[C@@H]2CCCN2C(=O)CCSSCCNC(=O)[C@H](Cc2ccccc2)NC1=O)c1ccc(Cl)s1 [X-B1-D3-F + A14] ([Mpa]P[Dap](2Thenoyl(5-Cl))F-Cysteamide; disulfide 1-C)
- fraction fluorescent probe displaced: 0.08192

Compound: O=C(/C=C/c1ccccc1)NC[C@@H]1NC(=O)[C@H](Cc2c[nH]c3ccccc23)NC(=O)CCSSCCNC(=O)[C@@H]2CCCN2C1=O [X W D3 B1 Acid 91] ([Mpa]W[Dap](X1)P-Cysteamide; disulfide 1-C)
- fraction fluorescent probe displaced, Screen (Acid 91): 0.11
- fraction fluorescent probe displaced, Replicate (Acid 91): -0.00827

Compound: O=C(NC[C@@H]1NC(=O)[C@@H]2CCCN2C(=O)CCSSCCNC(=O)[C@H](Cc2ccccc2)NC1=O)c1ccc2[nH]cnc2c1 [X-B1-D3-F + A6] ([Mpa]P[Dap](X13)F-Cysteamide; disulfide 1-C)
- fraction fluorescent probe displaced: -0.003922

Compound: O=C1CCSSCCNC(=O)C2(CCN(C(=O)/C=C/c3ccccc3)CC2)NC(=O)c2cccc(c2)CNC(=O)[C@H](Cc2ccccc2)N1 [X F B5 D6 Acid 91]
- fraction fluorescent probe displaced, Screen (Acid 91): -0.08
- fraction fluorescent probe displaced, Replicate (Acid 91): -0.00827

Compound: O=C1CCSSCCNC(=O)C2(CCN(C(=O)C=Cc3ccccc3)CC2)NC(=O)C(Cc2c[nH]c3ccccc23)NC(=O)CCN1 (stereo not drawn) [X B2 W D6 Acid 91]
- fraction fluorescent probe displaced, Screen (Acid 91): 0.0563
- fraction fluorescent probe displaced, Replicate (Acid 91): 0.07

Compound: O=C1NC(Cc2c[nH]c3ccccc23)C(=O)NCCSSCCC(=O)N2CCN(C(=O)C=Cc3ccccc3)CC2C(=O)N2CCCC1C2 (stereo not drawn) [X D7 B4 W Acid 91]
- fraction fluorescent probe displaced, Screen (Acid 91): 0.08
- fraction fluorescent probe displaced, Replicate (Acid 91): 0.07

Compound: CC(C)=CCCC(C)CC(=O)NC[C@@H]1NC(=O)[C@@H]2CCCN2C(=O)CCSSCCNC(=O)[C@H](Cc2ccccc2)NC1=O (stereo partly drawn) [X-B1-D3-F + A84] ([Mpa]P[Dap](X7)F-Cysteamide; disulfide 1-C)
- fraction fluorescent probe displaced: 0.05085

Source: paper PMC9250534, “Synthesis and direct assay of large macrocycle diversities by combinatorial late-stage modification at picomole scale” (Nature Communications, 2022)
